Legend:
spatial memory = assay: Morris water maze task; format: in vivo; conditions: rats; ZL006-05 90 mg/kg/d, i.g.; MK801 0.25 mg/kg/d, i.v.; 6 days
Procedure: The Morris water maze task was used to exam spatial cognitive performance of rats. A circular swimming pool (Jiliang Neuroscience Inc.) measuring 180 cm in diameter and 48 cm in height was filled with water to a depth of 26 cm at 24 ± 2 °C. Four starting points around the edge of the pool were designated as N, E, S, and W, which divided the pool into four quadrants. A platform, 10 cm in diameter, was located in a constant position in the middle of one quadrant. To render it invisible to the rats, platform was submerged 2.0 cm below the surface of the water. The task for the rats was to escape from the water by locating the hidden platform. Two days before training, the animals were habituated to swimming for 60 s in the pool without a platform. In training session, rats were trained to escape from the water by locating the platform which was above the water with a red flag on it. Then, one block of four trails was given for 6 consecutive days, and on each day, two groups of rats were administrated with MK801 (0.25 mg/kg, i.v.) or vehicle (6 mL/kg, i.v.) 30 minutes before the first trail. Meanwhile, another two groups of rats were treated with ZL006-05 (90 mg/kg, i.g.) or vehicle (6 mL/kg, i.g.) 1 hour before the first trail. […] During retention, the number of crossings of the platform location and the time spent in the target quadrant were measured.

neuropathic pain = system: neuropathic pain; set-up: method as in PMID 32632774; conditions: treatment of neuropathic pain, chronic use; cited from earlier work
α2β3γ2 GABAARs = target: T1, α2β3γ2 GABAARs (Homo sapiens, UniProt P18507+P28472+P47869); assay: Potentiation of GABA-evoked currents, whole-cell patch-clamp in HEK293 cells transiently expressing recombinant GABAARs; format: cell-based
T1 construct: Shanghai Genechem Co.,Ltd (γ2 plasmid); host or cells: HEK293
Procedure: (§1) The affinities of drugs for α1, α2, α3 and α5 subunits were studied in the HEK293 cells (from FuHeng Biology, Shanghai, China) transiently expressing recombinant GABAARs (α1β2γ2, α2β3γ2, α3β3γ2 and α5β2γ2) as described previously. Briefly, the HEK293 cells were cultured in MEM medium supplemented with 10% FBS (fetal bovine serum, Gibico), 1% L-glutamine (Gibco) and 1% mycillin (Gibco). Before transfection, the cells were subcultured onto a 3.5cm dish at the ratio of 1:2. Then, the plasmids of α1/α2/α3/α5 (Origene), β2/β3 (Origene) and γ2 (Shanghai Genechem Co.,Ltd ) (5μg total DNA, ratio 1:1:2) were transfected using Fugene®HD transfection reagent (Promega). The γ2 subunit contained GFP from IRES (internal ribosomal entry site) and was used as a marker of the successful transfection. Cells were used for electrophysiology recording 18-36 hours after transfection.
(§2) Electrophysiology recordings from HEK293 cells were performed as described previously. Briefly, whole-cell patch-clamp recordings of GABA-evoked currents were made at 30 °C with the holding potential of -60 mV. The internal solution (solution in recording electrodes) contained (in mM): 120 CsCl, 10 EGTA, 10 HEPES, 4 MgCl2, 0.5 GTP, 2 ATP and pH was adjusted to 7.4 with CsOH and the external solution contained (in mM): 150 NaCl, 10 KCl, 2 CaCl2, 1 MgCl, 10 HEPES, 10 Glucose and pH was adjusted to 7.4 with NaOH. ACSF was bubbled continuously with carbogen (95%O2 and 5%CO2). For the recording of GABA-evoked currents, the slides were transferred to a recording chamber, which was perfused with ACSF at a rate of 4 ml/min. The cells were viewed under upright microscopy (Olympus), and GFP-positive cells were selected to record the currents. The interval time between each different dose of GABA was controlled, 3 to 5 minutes to avoid the desensitization of GABAARs.

[1] = system: SNL-induced mechanical hyperalgesia; assay: SNL-induced mechanical hyperalgesia, paw withdrawal threshold; format: in vivo, rat; conditions: SNL rats, 60 mg/kg/d, i.g., 11 d
Procedure: (§3) Neuropathic pain was induced by segmental spinal nerve ligation (SNL). Animals were anesthetized with isoflurane. After the loss of righting reflex, the animal was fixed in the prone position. The SNL model was prepared as described previously: a median skin incision with about 3-5 cm length in L4-S2 level of the mouse back was made, the muscles next to the vertebrae till the sixth lumbar protruding were separated, the L5/L6 joint protruding on the right side was exposed and excised, and L6 processus transversus was partially split so that the L4-L6 spinal nerves on the right side were exposed. L5 nerve was gently isolated and tightly ligated with 5-0 silk thread. The wound was closed with 4-0 silk thread suture and covered with iodine solution. After nerve ligation, animals with signs of paw clonus or autotomy were excluded from further experiments.
Osmotic minipumps (models 1004 for mouse and 2ML4 for rat; Alzet) and intrathecal cannulas (0.61 mm outer diameter and 0.28 mm inner diameter for mouse, 0.99 mm outer diameter and 0.58 mm inner diameter for rat) were filled with a solution of PBS. Cannulas were inserted into the subarachnoid space through the space between the L5 and L6 vertebrae and the tip of the catheter was implanted at the L5 spinal segmental level.
For rats, the threshold for 50% paw withdrawal (50% PWT) response to mechanical stimulus was assessed through a dynamic plantar apparatus (Ugo Basile, Italy). The 50% PWT refers to that the probability of paw withdrawal response to repeated mechanical stimulus is 50%. Rats were placed individually in a plastic cage (17 × 15 × 15 cm) with a wire mesh bottom which allowed full access to the paws. Behavioral accommodation was allowed for 15-20 min until cage exploration and major grooming activities ceased. A maximal cut-off of 50g/50s was set to prevent tissue damage. To record the PWT in response to mechanical stimulus, each rat was measured five times with a 5-min interval, and the mean value was recorded after excluding maximal and minimum values. The experimental procedures were performed in a double-blind manner.

PSD-95-nNOS complex = target: T2, PSD-95-nNOS complex (Rattus norvegicus, UniProt P29476); assay: Co-IP of PSD-95-nNOS complex levels in the spinal dorsal horn after SNL; format: in vivo; conditions: SNL rats, 60 mg/kg/d, i.g., 3 d
T2 construct: dorsal spinal cord tissues (L4 and L5) were lysed in 400 μl RIPA; from tissue; host or cells: rat dorsal spinal cord (L4 and L5), SNL model

α3β3γ2 GABAARs = target: T3, α3β3γ2 GABAARs (Homo sapiens, UniProt P18507+P28472+P34903); assay: Potentiation of GABA-evoked currents, whole-cell patch-clamp in HEK293 cells transiently expressing recombinant GABAARs; format: cell-based; conditions: α3β3γ2, n = 8
T3 construct: Shanghai Genechem Co.,Ltd (γ2 plasmid); host or cells: HEK293
Procedure: as §1, §2

α1β2γ2 GABAARs = target: T4, α1β2γ2 GABAARs (Homo sapiens, UniProt P14867+P18507+P47870); assay: as above; format: cell-based; conditions: α1β2γ2, n = 8
T4 construct: Shanghai Genechem Co.,Ltd (γ2 plasmid); host or cells: HEK293
Procedure: as §1, §2

locomotor activity = assay: Open field test, locomotor activity; format: in vivo; conditions: mice, 1 h after injection, ZL006-05 60 mg/kg, i.v., diazepam 0.5 mg/kg
Procedure: The locomotor activity was assessed by the open field test as described previously. The apparatus consisted of a large area composed of plastic, surrounded by walls that were 100 cm high. The floor was 50 × 50 cm for mice; the overall illumination was 25 lux. Each animal was gently placed in the center of the open field, and its behavior was videotaped. The distance the animals travelled was measured in a 5-min session using ANY-maze (Stoelting Co., IL, USA). After each trial, the plate was cleaned with 70% EtOH. No stressor was applied to the animals for at least 12 h before the test.

motor coordination = assay: Rotarod test, motor coordination; format: in vivo; conditions: rats, 30 min after injection, ZL006-05 60 mg/kg, i.v., diazepam 0.5 mg/kg
[2] = system: SNL-induced mechanical hyperalgesia; assay: SNL-induced mechanical hyperalgesia, von Frey; format: in vivo, mice; conditions: SNL mice, ZL006-05 60 mg/kg/d, i.g., × 28 d; pregabalin 30 mg/kg/d
Procedure: as §3
For mice, the threshold for 50% PWT response to mechanical stimulus was quantified by assessing the paw withdrawal threshold using von Frey filaments (Touch-Test TM Sensory Evaluator, North coast Medical, Inc.). Mice were placed individually in a plastic cage (4.5 × 5 × 11 cm) with a wire mesh bottom which allowed full access to the paws. Behavioral accommodation was allowed for 20-30 min until cage exploration and major grooming activities ceased. Mechanical threshold was measured by applying a von Frey filament to the ventral surface of the right hind paw until a positive sign of pain behavior was elicited. The paradigm for assessing the threshold was as follows. Von Frey filaments with logarithmically incremental stiffness (0.02-2 g) were applied serially to the paw by the up-down method. The filaments were presented, in ascending order of strength, perpendicular to the plantar surface with sufficient force to causes light bending against the paw and held for 4s. A positive response was noted if the paw was sharply withdrawn. Flinching immediately upon removal of the hair was also considered a positive response. The 2-g filament was selected as the upper limit cut-off for testing. If there was no response at 2-g filament, animals were assigned this cut-off value. The pattern of positive and negative withdrawal responses was converted to 50% threshold according to the formula: 50% PWT = 10 log (X) + κδ. X = value (in log unit) of the final von Frey hair used; κ is correction factors based on the pattern of responses from the calibration table; δ = mean difference in log units between stimuli (here, 0.224).

T1 sequence (P47869 29-451): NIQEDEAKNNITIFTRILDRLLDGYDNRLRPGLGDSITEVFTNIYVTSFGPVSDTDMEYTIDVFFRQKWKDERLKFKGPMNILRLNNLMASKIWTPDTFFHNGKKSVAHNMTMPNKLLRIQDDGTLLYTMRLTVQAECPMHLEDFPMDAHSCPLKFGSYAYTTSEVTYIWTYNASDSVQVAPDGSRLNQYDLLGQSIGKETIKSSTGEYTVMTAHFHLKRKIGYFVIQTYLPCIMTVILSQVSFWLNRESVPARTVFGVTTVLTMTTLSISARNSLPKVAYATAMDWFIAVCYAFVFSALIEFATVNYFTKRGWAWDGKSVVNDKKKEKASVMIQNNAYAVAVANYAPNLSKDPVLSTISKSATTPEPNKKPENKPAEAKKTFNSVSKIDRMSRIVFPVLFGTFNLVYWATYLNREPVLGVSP
T1 sequence (P28472 26-473): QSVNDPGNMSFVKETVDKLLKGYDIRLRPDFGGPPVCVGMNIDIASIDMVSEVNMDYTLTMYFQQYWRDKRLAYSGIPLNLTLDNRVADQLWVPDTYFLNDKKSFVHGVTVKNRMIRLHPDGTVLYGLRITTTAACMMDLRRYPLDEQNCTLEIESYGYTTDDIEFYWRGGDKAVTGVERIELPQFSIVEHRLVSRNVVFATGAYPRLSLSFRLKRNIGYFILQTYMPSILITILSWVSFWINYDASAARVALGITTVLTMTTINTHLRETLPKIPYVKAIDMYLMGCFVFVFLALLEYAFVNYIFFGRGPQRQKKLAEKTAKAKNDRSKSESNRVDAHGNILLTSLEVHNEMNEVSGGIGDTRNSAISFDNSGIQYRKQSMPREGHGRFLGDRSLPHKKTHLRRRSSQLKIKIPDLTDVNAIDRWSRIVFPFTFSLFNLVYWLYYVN
T1 sequence (P18507 40-475): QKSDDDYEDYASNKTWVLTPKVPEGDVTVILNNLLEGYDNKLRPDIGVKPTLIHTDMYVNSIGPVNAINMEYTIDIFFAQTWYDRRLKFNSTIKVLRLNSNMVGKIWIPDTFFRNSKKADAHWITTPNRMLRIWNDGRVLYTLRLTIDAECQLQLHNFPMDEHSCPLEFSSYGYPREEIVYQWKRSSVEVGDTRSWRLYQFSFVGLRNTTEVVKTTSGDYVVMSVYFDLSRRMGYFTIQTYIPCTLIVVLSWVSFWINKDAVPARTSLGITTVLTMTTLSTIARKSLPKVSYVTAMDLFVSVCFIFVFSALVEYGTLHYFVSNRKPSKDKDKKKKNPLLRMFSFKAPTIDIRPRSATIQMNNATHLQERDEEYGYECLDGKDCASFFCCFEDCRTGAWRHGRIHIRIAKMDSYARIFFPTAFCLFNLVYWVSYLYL
T4 sequence (P14867 28-456): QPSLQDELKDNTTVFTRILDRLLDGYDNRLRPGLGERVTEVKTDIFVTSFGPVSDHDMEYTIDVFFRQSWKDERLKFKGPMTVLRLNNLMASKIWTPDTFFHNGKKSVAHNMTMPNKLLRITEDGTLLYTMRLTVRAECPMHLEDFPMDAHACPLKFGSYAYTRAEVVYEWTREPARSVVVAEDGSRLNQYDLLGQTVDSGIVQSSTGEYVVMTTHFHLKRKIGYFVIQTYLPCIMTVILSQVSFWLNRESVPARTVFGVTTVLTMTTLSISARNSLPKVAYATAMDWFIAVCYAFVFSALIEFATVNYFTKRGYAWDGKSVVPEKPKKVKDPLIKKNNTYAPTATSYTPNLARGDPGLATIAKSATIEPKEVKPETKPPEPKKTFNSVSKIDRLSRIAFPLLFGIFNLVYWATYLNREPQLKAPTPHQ
T4 sequence (P47870 25-512 limits assumed): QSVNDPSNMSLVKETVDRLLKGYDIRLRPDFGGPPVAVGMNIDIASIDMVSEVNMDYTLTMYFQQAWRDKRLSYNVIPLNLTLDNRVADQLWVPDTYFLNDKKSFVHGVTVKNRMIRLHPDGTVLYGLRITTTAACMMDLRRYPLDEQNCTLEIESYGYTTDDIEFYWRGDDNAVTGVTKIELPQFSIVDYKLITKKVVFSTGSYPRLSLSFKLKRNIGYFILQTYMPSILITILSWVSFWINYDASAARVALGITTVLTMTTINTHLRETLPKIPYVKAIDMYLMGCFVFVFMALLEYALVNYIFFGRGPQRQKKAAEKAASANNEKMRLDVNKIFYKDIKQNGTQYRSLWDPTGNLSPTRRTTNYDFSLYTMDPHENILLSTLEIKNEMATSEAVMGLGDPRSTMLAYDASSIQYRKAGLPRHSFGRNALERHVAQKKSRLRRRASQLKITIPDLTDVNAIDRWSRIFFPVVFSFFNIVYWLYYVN
T4 sequence (P18507 40-475): as the sequence (P18507 40-475) above
T2 sequence (P29476 whole entry, one chain of several): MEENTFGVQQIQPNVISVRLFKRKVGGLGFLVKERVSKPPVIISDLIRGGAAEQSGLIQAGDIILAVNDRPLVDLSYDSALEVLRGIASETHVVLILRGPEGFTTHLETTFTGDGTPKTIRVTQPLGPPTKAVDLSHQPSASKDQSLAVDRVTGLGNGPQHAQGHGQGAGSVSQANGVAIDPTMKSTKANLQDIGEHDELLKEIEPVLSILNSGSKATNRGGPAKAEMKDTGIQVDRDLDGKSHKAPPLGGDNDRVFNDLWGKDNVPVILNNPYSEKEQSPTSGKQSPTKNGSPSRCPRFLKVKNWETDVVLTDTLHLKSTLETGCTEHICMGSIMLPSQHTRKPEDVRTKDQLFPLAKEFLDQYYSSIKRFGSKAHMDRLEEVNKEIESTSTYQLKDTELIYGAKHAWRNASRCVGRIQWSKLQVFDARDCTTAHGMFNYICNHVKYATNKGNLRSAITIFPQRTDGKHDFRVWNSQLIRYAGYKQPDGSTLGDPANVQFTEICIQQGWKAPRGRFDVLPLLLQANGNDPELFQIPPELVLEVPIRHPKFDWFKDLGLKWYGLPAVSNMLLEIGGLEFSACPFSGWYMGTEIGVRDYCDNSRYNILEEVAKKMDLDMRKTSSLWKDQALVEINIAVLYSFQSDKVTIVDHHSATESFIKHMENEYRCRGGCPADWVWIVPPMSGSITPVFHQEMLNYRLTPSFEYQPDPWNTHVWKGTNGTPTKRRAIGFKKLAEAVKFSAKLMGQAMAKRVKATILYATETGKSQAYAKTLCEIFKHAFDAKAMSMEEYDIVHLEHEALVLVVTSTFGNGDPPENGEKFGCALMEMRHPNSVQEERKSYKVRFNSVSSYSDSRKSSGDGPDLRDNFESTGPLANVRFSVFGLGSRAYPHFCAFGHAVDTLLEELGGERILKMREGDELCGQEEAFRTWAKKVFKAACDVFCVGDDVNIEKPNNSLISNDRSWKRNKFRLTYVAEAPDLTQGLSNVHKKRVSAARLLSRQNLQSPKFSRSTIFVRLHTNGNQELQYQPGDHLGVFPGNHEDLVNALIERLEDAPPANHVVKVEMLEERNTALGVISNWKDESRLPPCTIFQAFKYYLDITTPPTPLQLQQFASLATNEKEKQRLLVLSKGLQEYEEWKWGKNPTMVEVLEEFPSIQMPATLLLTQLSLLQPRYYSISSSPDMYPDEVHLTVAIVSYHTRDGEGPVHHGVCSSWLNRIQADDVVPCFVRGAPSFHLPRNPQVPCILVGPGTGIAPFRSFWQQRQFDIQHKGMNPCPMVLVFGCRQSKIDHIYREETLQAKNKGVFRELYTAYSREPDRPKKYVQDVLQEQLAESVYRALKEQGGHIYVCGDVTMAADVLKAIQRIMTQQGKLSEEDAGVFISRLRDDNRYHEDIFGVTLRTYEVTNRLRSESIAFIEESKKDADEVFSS
T3 sequence (P34903 29-492): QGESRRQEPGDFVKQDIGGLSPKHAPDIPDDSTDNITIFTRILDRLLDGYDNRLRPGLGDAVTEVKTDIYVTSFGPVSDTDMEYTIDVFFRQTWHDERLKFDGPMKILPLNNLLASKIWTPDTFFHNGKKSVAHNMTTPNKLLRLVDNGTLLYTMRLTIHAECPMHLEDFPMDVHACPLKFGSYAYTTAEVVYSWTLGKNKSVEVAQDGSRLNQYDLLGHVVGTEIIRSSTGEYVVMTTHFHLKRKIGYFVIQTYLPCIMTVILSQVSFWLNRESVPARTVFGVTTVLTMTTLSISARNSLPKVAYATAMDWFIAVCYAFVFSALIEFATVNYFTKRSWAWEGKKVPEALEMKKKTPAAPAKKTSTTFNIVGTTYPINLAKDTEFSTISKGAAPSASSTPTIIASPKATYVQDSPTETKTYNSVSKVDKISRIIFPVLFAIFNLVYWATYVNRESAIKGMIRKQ
T3 sequence (P28472 26-473): as the sequence (P28472 26-473) above
T3 sequence (P18507 40-475): as the sequence (P18507 40-475) above

## C[C@]12N[C@H](Cc3ccccc31)c1ccccc12 [MK801]
Spatial memory
  Spatial memory in the Morris water maze task: caused significantly impaired spatial memory
Neuropathic pain
  Analgesic tolerance when used chronically: cause obvious analgesic tolerance

## O=C(OC1CCCCC1)c1ccc(NCc2cc(Cl)cc(Cl)c2O)cc1O [ZL006-05A]
α2β3γ2 GABAARs; α2β3γ2
  Effect on α2-containing GABAAR (in words): without ability to target α2-containing GABAAR
[1]
  Analgesic tolerance, mechanical hyperalgesia: caused substantial analgesic tolerance

## CC1(C)C2CCC1(C)C(OC(=O)c1ccc(NCc3ccccc3O)cc1O)C2 (centres unmarked) [ZL006-05B]
α2β3γ2 GABAARs; α2β3γ2, n = 8
  EC50: 2.834 ± 0.0033 nM
  Emax: 104 ± 21.9%
[1]
  Analgesic tolerance, mechanical hyperalgesia: caused substantial analgesic tolerance
PSD-95-nNOS complex
  PSD-95-nNOS complex level in the SDH: without ability to target PSD-95-nNOS

## CN1C(=O)CN=C(c2ccccc2)c2cc(Cl)ccc21 [diazepam]
α3β3γ2 GABAARs
  Emax: 113 ± 8.58%
α1β2γ2 GABAARs
  Emax: 109 ± 18.5%
α2β3γ2 GABAARs; α2β3γ2, n = 8
  Emax: 118 ± 16.4%
Locomotor activity
  Locomotor activity, distance travelled during 5 min: reduced the locomotor activity of mice in the open-field test
Motor coordination
  Motor coordination, time spent on the accelerating rotarod: shortened the time for rats to fall off an accelerating rotarod significantly

## CC(C)C[C@H](CN)CC(=O)O [pregabalin]
[2]
  Analgesic tolerance, mechanical hyperalgesia, 28 days treatment: caused a severe analgesic tolerance
